Consider 19 compounds from patent US10227312B2, “Glucosylceramide synthase inhibitors for the treatment of diseases” (BIOMARIN PHARMACEUTICAL INC., priority 2015, dated 2019).

Some results are limits rather than exact numbers.

The target of experiment [1] is glucosylceramide synthase (GCS) (Canis lupus familiaris, UniProt A0A8I3MXG6). The experiment can be described thus: GCS Enzymatic Assay (MDCK lysates). The experiment is classed as biochemical, canine. Particulars: MDCK cell lysate, C6-NBD-Ceramide, 37° C. for 1 hour, LC/MS; read-out: Assay 1 (Enzyme Assay; MDCK lysates) IC50. As to the method: Madin-Darby canine kidney (MDCK) cell lysate was prepared using M-PER Mammalian Protein Extraction Reagent (Thermal Scientific) in the presence of a protease inhibitor cocktail (Roche). Protein concentration was determined using BCA assay kit (Pierce). […] 0.1% DMSO was used as mock treatment or control. The reaction was terminated by adding 100 μL acetonitrile solution and subjected to LC/MS analysis.
The quantitative analysis of NBD-Ceramide and glucosylceramide was performed on a Shimadzu ultra-fast liquid chromatography (Shimadzu, Japan) coupled with API 4000 triple quadrupole mass spectrometer (Applied Biosystems, Concord, Ontario, Canada). Sample separation was conducted on a Waters Xbridge™ BEH130 C18, 100 mm×4.6 mm i.d, 3.5 μm (Milford, Mass., USA). The mobile phase consisted of water and acetonitrile supplemented with 0.1% formic acid (v/v). The flow rate was 1.0 mL/min. The initial mobile phase was 20% acetonitrile and was ramped in a linear fashion to 50% acetonitrile in 0.4 min. From 0.4 to 1.5 min, the gradient was ramped to 98% acetonitrile, and then was held at […] until 8.0 min. Acetonitrile was reset to 20% in 1.5 min, and maintained until 10.0 min. The total run time was 10.0 min. The MS/MS detection was performed in ESI positive mode. […] The cell lysate was diluted with equal volume of acetonitrile. Aliquots of 50 μL diluted samples were added to 1.5 mL tubes, and 100 μL of acetonitrile containing internal standard (100 ng/mL tolbutamide) were added for protein precipitation. The mixture were vortexed and then centrifuged at 13000 rpm for 10 min. 70 μL of supernatant were mixed with 140 μL of H2O and the final solution were injected for LC/MS/MS analysis and IC50's and/or percent inhibitions calculated.

A further experiment concerns K562 cells. In words: K562 Cell-Based Assay. The settings on record: Homo sapiens, NBD-Ceramide, LCMS, read-out: Assay 2 (Cellular Assay; K562 cells) IC50. As to the method:
This assay was modified based on the study by Gupta et al. (J. Lipid Res. 2010, 51, 866). K562 cells were seeded into 12-well plates at 3×10^5 cells/well/mL in RPMI-1640 medium with 5% FBS and incubated at 37° C. for 24 h. One μL of a compound described herein at desired concentration (10 mM, 1 mM, 0.1 mM, 0.01 mM, 0.001 mM and 0.0001 mM in DMSO) or DMSO was added into the corresponding well and mixed. Cells were incubated at 37° C. for 4 h. Then 100 μL of RPMI-1640 medium containing 110 μM of NBD-Ceramide, 11% BSA, 5% FBS, and corresponding concentration of a compound described herein was added into each well and mixed. Cells were incubated for additional 0.5 h at 37° C., followed by washing the cells with ice-cold PBS (pH 7.4) twice with centrifugation and resuspended with 50 μL cold PBS+1% Triton X-100. The cell lysate was sonicated for 15 min before adding equal volume of methanol for LCMS analysis. A small aliquot of cell lysate was used to determine protein concentration by BCA assay kit. The HPLC equipment and methods used in Assay 1 were used in this assay as well and IC50's were calculated.

Sequence of glucosylceramide synthase (GCS) (A0A8I3MXG6 1-394): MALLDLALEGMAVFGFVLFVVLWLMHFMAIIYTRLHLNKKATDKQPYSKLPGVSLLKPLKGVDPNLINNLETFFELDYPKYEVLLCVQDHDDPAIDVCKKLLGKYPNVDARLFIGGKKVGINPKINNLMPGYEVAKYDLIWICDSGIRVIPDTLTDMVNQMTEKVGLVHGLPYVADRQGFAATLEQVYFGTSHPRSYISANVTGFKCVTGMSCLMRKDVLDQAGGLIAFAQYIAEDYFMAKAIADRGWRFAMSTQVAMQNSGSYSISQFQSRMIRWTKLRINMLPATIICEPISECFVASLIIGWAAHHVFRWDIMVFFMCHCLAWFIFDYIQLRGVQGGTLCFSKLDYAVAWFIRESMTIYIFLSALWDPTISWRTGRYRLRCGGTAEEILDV

With `O=C(N[C@H](CN1CCCC1)[C@H](O)c1ccc(OC2CC2)cc1)C1=NOCc2cc(-c3ccc(F)cc3)ccc21` [Example 4, N-((1R,2R)-1-(4-cyclopropoxyphenyl)-1-hydroxy-3-(pyrrolidin-1-yl)propan-2-yl)-7-(4-fluorophenyl)-1H-benzo[d][1,2]oxazine-4-carboxamide], the results for the IC50 (in experiment [1]; with K562 cells) were 10 to 100 nM and at most 10 nM, respectively.

With `O=C(N[C@H](CN1CCCC1)[C@H](O)c1ccc(OC2CC2)c(F)c1)C1=NOCc2c1sc1cc(Cl)ccc21` [Example 12, 7-chloro-N-((1R,2R)-1-(4-cyclopropoxy-3-fluorophenyl)-1-hydroxy-3-(pyrrolidin-1-yl)propan-2-yl)-1H-benzo[4,5]thieno[2,3-d][1,2]oxazine-4-carboxamide], the IC50 (in experiment [1]; in the experiment on K562 cells) was 10 to 100 nM throughout.

As for `Cn1ncc2ccc3c(c21)CON=C3C(=O)N[C@H](CN1CCCC1)[C@H](O)c1ccc(OC2CC2)c(Cl)c1` [Example 34, N-((1R,2R)-1-(3-chloro-4-cyclopropoxyphenyl)-1-hydroxy-3-(pyrrolidin-1-yl)propan-2-yl)-1-methyl-1,9-dihydro-[1,2]oxazino[4,5-g]indazole-6-carboxamide], the IC50 was below 10 nM in experiment [1] and 10 to 100 nM with K562 cells.

Take `O=C(N[C@H](CN1CCCC1)[C@H](O)c1ccc(OC2CC2)cc1)C1=NOCc2c1ccc1cc(F)ccc21` [Example 29, N-((1R,2R)-1-(4-cyclopropoxyphenyl)-1-hydroxy-3-(pyrrolidin-1-yl)propan-2-yl)-8-fluoro-1H-naphtho[2,1-d][1,2]oxazine-4-carboxamide]: the IC50 was below 10 nM in experiment [1] and at most 10 nM in the experiment with K562 cells.

Turning to `O=C(N[C@H](CN1CCCC1)[C@H](O)c1ccc(OC2CC2)cc1)C1=NOCc2c1ccc1ccccc21` [Example 25, N-((1R,2R)-1-(4-cyclopropoxyphenyl)-1-hydroxy-3-(pyrrolidin-1-yl)propan-2-yl)-1H-naphtho[2,1-d][1,2]oxazine-4-carboxamide], the IC50 in experiment [1] was below 10 nM; in the experiment on K562 cells, at most 10 nM.

In the case of `CN(C(=O)C1=NOCc2cc(-c3ccc(F)cc3)ccc21)[C@H](CN1CCCC1)[C@H](O)c1ccc(OC2CC2)c(Cl)c1` [Example 19, N-((1R,2R)-1-(3-chloro-4-cyclopropoxyphenyl)-1-hydroxy-3-(pyrrolidin-1-yl)propan-2-yl)-7-(4-fluorophenyl)-N-methyl-1H-benzo[d][1,2]oxazine-4-carboxamide], the IC50 in experiment [1] was 10 to 100 nM; in the experiment on K562 cells, at most 10 nM.

With `CN(C(=O)C1=NOCc2cc(-c3ccc(F)cc3)ccc21)[C@H](CN1CCCC1)[C@H](O)c1ccc(OC2CC2)c(F)c1` [Example 17, N-((1R,2R)-1-(4-cyclopropoxy-3-fluorophenyl)-1-hydroxy-3-(pyrrolidin-1-yl)propan-2-yl)-7-(4-fluorophenyl)-N-methyl-1H-benzo[d][1,2]oxazine-4-carboxamide], the results for the IC50 (in experiment [1]; in the experiment on K562 cells) were below 10 nM and at most 10 nM, respectively.

Take `O=C(N[C@H](CN1CCCC1)[C@H](O)c1ccc(OC2CC2)c(Cl)c1)C1=NOCc2c1ccc1cc(Cl)sc21` [Example 37, 2-chloro-N-((1R,2R)-1-(3-chloro-4-cyclopropoxyphenyl)-1-hydroxy-3-(pyrrolidin-1-yl)propan-2-yl)-9H-thieno[2′,3′:3,4]benzo[1,2-d][1,2]oxazine-6-carboxamide]: the IC50 was below 10 nM in experiment [1] and at most 10 nM in the experiment with K562 cells.

`O=C(N[C@H](CN1CCCC1)[C@H](O)c1ccc(OC2CC2)c(F)c1)C1=NOCc2cc(-c3ccc(F)cc3)ccc21` [Example 2, N-((1R,2R)-1-(4-cyclopropoxy-3-fluorophenyl)-1-hydroxy-3-(pyrrolidin-1-yl)propan-2-yl)-7-(4-fluorophenyl)-1H-benzo[d][1,2]oxazine-4-carboxamide]: the IC50 in experiment [1] was below 10 nM; in the experiment on K562 cells, at most 10 nM.

Turning to `O=C(N[C@H](CN1CCCC1)[C@H](O)c1ccc(OC2CC2)c(Cl)c1)C1=NOCc2c1ccc1ccccc21` [Example 22, N-((1R,2R)-1-(3-chloro-4-cyclopropoxyphenyl)-1-hydroxy-3-(pyrrolidin-1-yl)propan-2-yl)-1H-naphtho[2,1-d][1,2]oxazine-4-carboxamide], the IC50 in experiment [1] is below 10 nM; in the experiment with K562 cells it was at most 10 nM.

Regarding `O=C(N[C@H](CN1CCC1)[C@H](O)c1ccc(OC2CC2)c(Cl)c1)C1=NOCc2cc(-c3ccc(F)cc3)ccc21` [Example 5, N-((1R,2R)-3-(azetidin-1-yl)-1-(3-chloro-4-cyclopropoxyphenyl)-1-hydroxypropan-2-yl)-7-(4-fluorophenyl)-1H-benzo[d][1,2]oxazine-4-carboxamide], the IC50 was 10 to 100 nM in experiment [1] and at most 10 nM with K562 cells.

With `O=C(N[C@H](CN1CCCC1)[C@H](O)c1ccc(OC2CC2)c(F)c1)C1=NOCc2c1ccc1cc(Cl)sc21` [Example 47, 2-chloro-N-((1R,2R)-1-(4-cyclopropoxy-3-fluorophenyl)-1-hydroxy-3-(pyrrolidin-1-yl)propan-2-yl)-9H-thieno[2′,3′:3,4]benzo[1,2-d][1,2]oxazine-6-carboxamide], the IC50 in experiment [1] is below 10 nM; in the experiment on K562 cells, at most 10 nM.

For `O=C(N[C@H](CN1CCCC1)[C@H](O)c1cc(F)c2c(c1)OCCO2)C1=NOCc2cc(-c3ccc(F)cc3)ccc21` [Example 3, N-((1R,2R)-1-(8-fluoro-2,3-dihydrobenzo[b][1,4]dioxin-6-yl)-1-hydroxy-3-(pyrrolidin-1-yl)propan-2-yl)-7-(4-fluorophenyl)-1H-benzo[d][1,2]oxazine-4-carboxamide], the IC50 in experiment [1] was below 10 nM; with K562 cells, at most 10 nM.

Take `O=C(N[C@H](CN1CCCC1)[C@H](O)c1ccc(OC2CC2)c(Cl)c1)C1=NOCc2c1ccc1cc(F)ccc21` [Example 28, N-((1R,2R)-1-(3-chloro-4-cyclopropoxyphenyl)-1-hydroxy-3-(pyrrolidin-1-yl)propan-2-yl)-8-fluoro-1H-naphtho[2,1-d][1,2]oxazine-4-carboxamide]: the IC50 is below 10 nM in experiment [1] and at most 10 nM in the experiment with K562 cells.

`CN(C(=O)C1=NOCc2cc(-c3ccc(F)cc3)ccc21)[C@H](CN1CCC1)[C@H](O)c1ccc(OC2CC2)c(Cl)c1` [Example 21, N-((1R,2R)-3-(azetidin-1-yl)-1-(3-chloro-4-cyclopropoxyphenyl)-1-hydroxypropan-2-yl)-7-(4-fluorophenyl)-N-methyl-1H-benzo[d][1,2]oxazine-4-carboxamide]: the IC50 was 10 to 100 nM in experiment [1] and at most 10 nM in the experiment on K562 cells.

`O=C(N[C@H](CN1CCCC1)[C@H](O)c1ccc(OC2CC2)c(Cl)c1)C1=NOCc2c1ccc1cccnc21` [Example 27, N-((1R,2R)-1-(3-chloro-4-cyclopropoxyphenyl)-1-hydroxy-3-(pyrrolidin-1-yl)propan-2-yl)-10H-[1,2]oxazino[4,5-h]quinoline-7-carboxamide]: the IC50 is below 10 nM in experiment [1] and 10 to 100 nM with K562 cells.

On to `O=C(N[C@H](CN1CCC1)[C@H](O)c1ccc(OC2CC2)c(Cl)c1)C1=NOCc2c1ccc1cc(F)ccc21` [Example 30, N-((1R,2R)-3-(azetidin-1-yl)-1-(3-chloro-4-cyclopropoxyphenyl)-1-hydroxypropan-2-yl)-8-fluoro-1H-naphtho[2,1-d][1,2]oxazine-4-carboxamide], for which the IC50 was below 10 nM in experiment [1] and 10 to 100 nM in the experiment on K562 cells.

Turning to `O=C(N[C@H](CN1CCCC1)[C@H](O)c1ccc(OC2CC2)c(Cl)c1)C1=NOCc2c1ccc1ncccc21` [Example 36, N-((1R,2R)-1-(3-chloro-4-cyclopropoxyphenyl)-1-hydroxy-3-(pyrrolidin-1-yl)propan-2-yl)-1H-[1,2]oxazino[5,4-f]quinoline-4-carboxamide], the IC50 in experiment [1] was below 10 nM; in the experiment on K562 cells it was 10 to 100 nM.

Turning to `O=C(N[C@H](CN1CCCC1)[C@H](O)c1ccc(OC2CC2)c(F)c1)C1=NCCc2cc(-c3ccc(F)cc3)ccc21` [Example 38, N-((1R,2R)-1-(4-cyclopropoxy-3-fluorophenyl)-1-hydroxy-3-(pyrrolidin-1-yl)propan-2-yl)-6-(4-fluorophenyl)-3,4-dihydroisoquinoline-1-carboxamide], the IC50 was 10 to 100 nM in experiment [1] and at most 10 nM in the experiment on K562 cells.
